Compound in assay [1]: NS(=O)(=O)OC[C@@H]1C[C@@H](n2ccc3c(N[C@H]4CCc5ccccc54)ncnc32)C[C@@H]1O [MLN-4924]
Kind of assay: surviving fraction relative to DMSO-only wells; higher = less growth inhibition. The settings on record: exposure time: 5 days. Put shortly: (§1)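 Viability was scored with CellTiter-Glo luminescence and normalised to the median of DMSO-only wells as surviving fraction. Beforehand, log-phase tumour cell lines were seeded at 250–500 cells per well in 384-well plates, allowed 24 hours, and exposed continuously for five days to inhibitors at 0.5, 1, 5, 10, 50, 100, 500 and 1000 nM. Only lines whose three screens gave replicate Pearson r >0.7 and median Z' >0.3 were kept.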

Compound in assay [2]: Oc1nc(-c2ccc(C(F)(F)F)cc2)nc2c1CSCC2 [XAV-939]
Described as above. The settings on record: exposure time: 5 days. The gist of the method: as §1

± gives the standard deviation of the averaged measurements.

Results on seven test systems are retold here after the supplement of paper PMC6045584.

HS578T BREAST: the surviving fraction was 0.822 ± 0.14 in assay [1] (0.5 nM); 0.96 ± 0.14 in assay [1] (1 nM); 0.898 ± 0.05 in assay [1] (5 nM); 0.957 ± 0.11 in assay [1] (10 nM); 0.63 ± 0.021 in assay [1] (50 nM); 0.494 ± 0.037 in assay [1] (100 nM). For the same test system, the surviving fraction worked out at 0.342 ± 0.04 in assay [1] (500 nM); 0.326 ± 0.057 in assay [1] (1000 nM); 1.16 ± 0.15 in assay [2] (0.5 nM); 1.03 ± 0.2 in assay [2] (1 nM); 1.14 ± 0.064 in assay [2] (5 nM); 1.33 ± 0.062 in assay [2] (10 nM). Besides, the surviving fraction was 1.14 ± 0.13 in assay [2] (50 nM), 1.21 ± 0.058 in assay [2] (100 nM), 1.09 ± 0.069 in assay [2] (500 nM) and 0.972 ± 0.016 in assay [2] (1000 nM).

For HS57T BREAST, the surviving fraction amounted to 0.977 ± 0.059 in assay [1] (0.5 nM); 0.977 ± 0.069 in assay [1] (1 nM); 1.02 ± 0.064 in assay [1] (5 nM); 1.01 ± 0.07 in assay [1] (10 nM); 0.783 ± 0.093 in assay [1] (50 nM); 0.523 ± 0.021 in assay [1] (100 nM). The surviving fraction in assay [1] (500 nM) amounted to 0.139 ± 0.015; in assay [1] (1000 nM), 0.106 ± 0.0065; in assay [2] (0.5 nM), 1.07 ± 0.023; in assay [2] (1 nM), 1.11 ± 0.083; in assay [2] (5 nM) it was 1.06 ± 0.039; in assay [2] (10 nM) it was 1.02 ± 0.057. In addition, the surviving fraction in assay [2] (50 nM) amounted to 1.09 ± 0.046; in assay [2] (100 nM) it was 1.054 ± 0.0092; in assay [2] (500 nM), 0.889 ± 0.017; in assay [2] (1000 nM), 0.843 ± 0.075.

As to HMT3552 BREAST, the surviving fraction in assay [1] (0.5 nM) came to 1.04 ± 0.012; in assay [1] (1 nM) it was 1.11 ± 0.054; in assay [1] (5 nM), 1.11 ± 0.062; in assay [1] (10 nM) it was 1.11 ± 0.032; in assay [1] (50 nM) it was 0.458 ± 0.03; in assay [1] (100 nM), 0.295 ± 0.021. Also, the surviving fraction worked out at 0.154 ± 0.008 in assay [1] (500 nM); 0.108 ± 0.0046 in assay [1] (1000 nM); 1.1 in assay [2] (0.5 nM); 1.12 in assay [2] (1 nM); 1.1 in assay [2] (5 nM); 1.02 in assay [2] (10 nM). For the same test system, the surviving fraction in assay [2] (50 nM) came out at 1.18; in assay [2] (100 nM), 1.1; in assay [2] (500 nM), 1.07; in assay [2] (1000 nM), 1.09.

For the test system HCC70 BREAST, the surviving fraction turned out to be 1.06 ± 0.14 in assay [1] (0.5 nM); 1.09 ± 0.06 in assay [1] (1 nM); 1.07 ± 0.066 in assay [1] (5 nM); 0.96 ± 0.071 in assay [1] (10 nM); 0.582 ± 0.041 in assay [1] (50 nM); 0.41 ± 0.029 in assay [1] (100 nM). Also, the surviving fraction in assay [1] (500 nM) came to 0.14 ± 0.037; in assay [1] (1000 nM), 0.103 ± 0.014; in assay [2] (0.5 nM) it was 1.02 ± 0.083; in assay [2] (1 nM) it was 1.09 ± 0.11; in assay [2] (5 nM) it was 1.07 ± 0.026; in assay [2] (10 nM) it was 1.13 ± 0.067. In addition, the surviving fraction was found to be 1.13 ± 0.029 in assay [2] (50 nM), 1.12 ± 0.11 in assay [2] (100 nM), 0.871 ± 0.091 in assay [2] (500 nM) and 0.829 ± 0.12 in assay [2] (1000 nM).

As for HCC38 BREAST, the surviving fraction in assay [1] (0.5 nM) came out at 1.35 ± 0.069; in assay [1] (1 nM) it was 1.48 ± 0.14; in assay [1] (5 nM), 1.02 ± 0.14; in assay [1] (10 nM), 1.22 ± 0.18; in assay [1] (50 nM), 0.624 ± 0.064; in assay [1] (100 nM) it was 0.269 ± 0.025. In addition, the surviving fraction in assay [1] (500 nM) is 0.0757 ± 0.0075; in assay [1] (1000 nM), 0.0803 ± 0.013; in assay [2] (0.5 nM), 0.824 ± 0.32; in assay [2] (1 nM), 0.996 ± 0.18; in assay [2] (5 nM) it was 1.01 ± 0.2; in assay [2] (10 nM), 1.07 ± 0.23. Also, the surviving fraction came to 0.983 ± 0.034 in assay [2] (50 nM), 0.925 ± 0.15 in assay [2] (100 nM), 0.895 ± 0.085 in assay [2] (500 nM) and 0.855 ± 0.12 in assay [2] (1000 nM).

G292 BONE: the surviving fraction turned out to be 1.02 ± 0.031 in assay [1] (0.5 nM); 1 ± 0.048 in assay [1] (1 nM); 1.04 ± 0.017 in assay [1] (5 nM); 1.03 ± 0.054 in assay [1] (10 nM); 0.909 ± 0.049 in assay [1] (50 nM); 0.623 ± 0.068 in assay [1] (100 nM). The surviving fraction is 0.295 ± 0.011 in assay [1] (500 nM); 0.266 ± 0.019 in assay [1] (1000 nM); 0.788 ± 0.26 in assay [2] (0.5 nM); 0.995 ± 0.045 in assay [2] (1 nM); 0.96 ± 0.043 in assay [2] (5 nM); 0.963 ± 0.066 in assay [2] (10 nM). The surviving fraction turned out to be 0.818 ± 0.27 in assay [2] (50 nM), 0.965 ± 0.04 in assay [2] (100 nM), 0.917 ± 0.027 in assay [2] (500 nM) and 0.874 ± 0.046 in assay [2] (1000 nM).

On to HMLE3 BREAST, for which the surviving fraction in assay [1] (0.5 nM) worked out at 1.04 ± 0.046; in assay [1] (1 nM), 1.08 ± 0.031; in assay [1] (5 nM), 1.07 ± 0.016; in assay [1] (10 nM), 1.25 ± 0.019; in assay [1] (50 nM), 1.07 ± 0.016; in assay [1] (100 nM), 0.698 ± 0.024. Further, the surviving fraction in assay [1] (500 nM) was determined as 0.175 ± 0.017; in assay [1] (1000 nM), 0.114 ± 0.025; in assay [2] (0.5 nM) it was 0.921 ± 0.048; in assay [2] (1 nM), 0.956 ± 0.028; in assay [2] (5 nM), 0.97 ± 0.036; in assay [2] (10 nM), 0.969 ± 0.059. Moreover, the surviving fraction stood at 0.986 ± 0.047 in assay [2] (50 nM), 0.984 ± 0.078 in assay [2] (100 nM), 0.775 ± 0.054 in assay [2] (500 nM) and 0.734 ± 0.037 in assay [2] (1000 nM).
